Measurements from US11844794B2, “Pharmaceutical compositions” (ADEPTIO PHARMACEUTICALS LIMITED, priority 2017, dated 2023).
Entries after “also recorded” stand apart in the source; their conditions may differ. Where two headings read alike, the source gives them in different places.

Tests used:
[1] = tested on: patients suffering from tardive dyskinesia; conditions: cited from earlier work
[2] = tested on: Tardive Dyskinesia sufferers; conditions: Valbenazine 80 mg/day; cited from earlier work
amphetamine-induced rats = experiment: amphetamine-induced locomotor activity, open field test; assay type: in vivo, rat; conditions: male CD rats
Protocol: (§1) All animal experiments were carried out according to the National Institute of Health (NIH) guidelines for the care and use of laboratory animals, and approved by the National Animal Experiment Board, Finland. Male CD (Charles River Laboratories, Germany) at weight range of 200-250 g (165-200 g upon arrival) were used for the experiments. Animals were housed at a standard temperature (22±1° C.) and in a light-controlled environment (lights on from 7 am to 8 pm) with ad libitum access to food and water.
(§2) Locomotor activity of the rats was tested in open field arena. The open field test was performed during the rat light cycle and under a normal lighting evenly distributed to the test chambers. The paths of the rats were recorded by activity monitor (Med. Associates Inc.).
(§3) Dosing the vehicle, vehicle-amphetamine, (+)-α-DHTBZ or risperidone was done prior to LMA test. The rats were placed in the centre of the arena, and the path was recorded for 60 minutes.
Animals were grouped as follows: • Group 1: 10 rats treated with Vehicle (t=0 min) and Vehicle (t=30 min) • Group 2: 10 rats treated with Vehicle (t=0 min) and Amphetamine (t=30 min) • Group 3: 10 rats treated with (+)-α-DHTBZ 0.5 mg/kg (t=0 min) and Amphetamine (t=30 min) • Group 4: 10 rats treated with (+)-α-DHTBZ 1 mg/kg (t=0 min) and Amphetamine (t=30 min) • Group 5: 10 rats treated with (+)-α-DHTBZ 1.5 mg/kg (t=0 min) and Amphetamine (t=30 min) • Group 6: 10 rats treated with (+)-α-DHTBZ 2 mg/kg (t=0 min) and Amphetamine (t=30 min) • Group 7: 10 rats treated with risperidone 1 mg/kg (t=0 min) and Amphetamine (t=30 min)
(§4) Rats dosed with either vehicle, (+)-α-DHTBZ 0.5 mg/kg, (+)-α-DHTBZ 1 mg/kg, (+)-α-DHTBZ 1.5 mg/kg, (+)-α-DHTBZ 2 mg/kg or Risperidone 1 mg/kg were subjected to LMA testing first for 30 min and then for 60 minutes after vehicle or amphetamine challenge. Resulting locomotor activity was evaluated in 3 min bins and as a total over the testing period.
as §4, with “stereotypic” for “locomotor”, “period. […]” for “period.”

[3] = tested on: non-amphetamine induced rats; experiment: locomotor activity in rats without amphetamine induction, open field test; assay type: in vivo, rat; conditions: Study 3, non-induced rats, 1 mg/kg
Protocol: as §1, §2, §3
Animals were grouped as follows: • Group 1: 10 rats treated with Vehicle • Group 2: 10 rats treated with (+)-α-DHTBZ 2.5 mg/kg • Group 3: 10 rats treated with (+)-α-DHTBZ 5 mg/kg • Group 4: 10 rats treated with risperidone 1 mg/kg

[4] = equilibrium aqueous solubility by HPLC; assay type: physicochemical
Protocol: The aqueous solubilities of salts were measured by an equilibrium method in which an amount of the salt was weighed into a 2 ml vial equipped with a magnetic stirrer bar and water added. In cases where complete dissolution was observed, more material was added until the sample was exhausted. The slurry was then stirred for seven days before isolating the solids by centrifuge-filtration. The solids were analysed by XRPD and the filtrates were analysed by HPLC to determine the amount of (+)-alpha-dihydrotetrabenazine salt in solution. The solubilities were calculated against a calibration curve established for a (+)-alpha-dihydrotetrabenazine sample of known concentration.

[5] = solid form stability in slurry / polymorphism by XRPD; assay type: physicochemical; conditions: for crystalline form after stirring in slurry (XRPD): one week
[6] = thermal gravimetric analysis (TGA) / thermal stability; conditions: for TGA weight loss: 30-300° C. at 10° C./minute
Protocol: Differential scanning calorimetry (DSC) was carried out on the sample “as is” using a Mettler DSC1 instrument. The sample was weighed I an aluminium pan, covered with a pierced lid, and then crimped and analysed from 30-300° C. at 10° C./minute.
Thermal gravimetric analysis was performed on the sample “as is” using a Mettler 851^e TGA instrument. The sample was weighed in an alumina crucible and analysed from 30-300° C. at 10° C./minute.

[7] = molecular target: Chromaffin Granule Monoamine Transporter (Bos taurus, UniProt Q27963); conditions: racemic α versus racemic β, in vitro; cited from earlier work
[8] = moisture-sorption analysis; assay type: physicochemical; conditions: for moisture uptake: 25° C.
Protocol: Moisture-sorption analysis was carried out using a Hiden IGA Sorp moisture-sorption analyser. […] The sample was then subjected to an isothermal (at 25° C.) adsorption scan from 40 to 90% relative humidity in steps of 10%. The sample was allowed to equilibrate to an asymptotic weight at each point for a maximum of four hours. […] An adsorption scan was then performed from 0 to 40% relative humidity inn steps of 10%. The sample was dried for two hours at 60° C. and 0% relative humidity, and the resulting solid was analysed by XRPD.

Sequence of Chromaffin Granule Monoamine Transporter (Q27963 whole entry): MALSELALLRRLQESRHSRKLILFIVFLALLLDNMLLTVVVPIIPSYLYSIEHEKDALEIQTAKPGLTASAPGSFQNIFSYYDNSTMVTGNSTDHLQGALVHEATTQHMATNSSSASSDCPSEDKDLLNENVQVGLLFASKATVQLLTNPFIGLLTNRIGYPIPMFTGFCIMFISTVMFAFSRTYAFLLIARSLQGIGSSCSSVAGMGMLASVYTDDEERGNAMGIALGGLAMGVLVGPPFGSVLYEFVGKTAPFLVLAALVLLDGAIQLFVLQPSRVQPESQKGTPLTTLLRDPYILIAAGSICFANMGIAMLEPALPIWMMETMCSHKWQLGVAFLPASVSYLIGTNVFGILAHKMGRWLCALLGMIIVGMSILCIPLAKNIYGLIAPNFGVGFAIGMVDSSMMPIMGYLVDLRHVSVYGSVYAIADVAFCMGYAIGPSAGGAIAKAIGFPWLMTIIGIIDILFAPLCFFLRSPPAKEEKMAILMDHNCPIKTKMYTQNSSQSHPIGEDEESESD

COc1cc2c(cc1OC)[C@H]1C[C@@H](OC(=O)[C@@H](N)C(C)C)[C@H](CC(C)C)CN1CC2 [Valbenazine]
improvement scored with AIMS ([1]; Valbenazine 50 mg/day): did not show any significant signs of improvement
reduction of symptoms (AIMS) ([1]; Valbenazine 100 mg/day): some reduction of symptoms
Abnormal Involuntary Movement Score [2]: significant improvement

Cc1nc2n(c(=O)c1CCN1CCC(c3noc4cc(F)ccc34)CC1)CCCC2 [risperidone, reference compound]
total distance travelled compared to vehicle-amphetamine group (amphetamine-induced rats; Study 1, 1 mg/kg): lower locomotor activity
total stereotypic behaviour compared to vehicle-amphetamine group (amphetamine-induced rats; Study 1, 1 mg/kg): significantly different; also recorded: reduced stereotypic behaviour
total distance travelled compared to vehicle-amphetamine group (amphetamine-induced rats; Study 2, 1 mg/kg): lower locomotor activity
total stereotypic behaviour compared to vehicle-amphetamine group (amphetamine-induced rats; Study 2, 1 mg/kg): significantly different; also recorded: reduced stereotypic behaviour
total movement versus vehicle [3]: reduced total movement
total stereotypic behaviour versus vehicle [3]: reduced total stereotypic behaviour

COc1cc2c(cc1OC)[C@H]1C[C@@H](O)[C@H](CC(C)C)CN1CC2.Cl [HCl salt form A, (+)-α-dihydrotetrabenazine hydrochloride]
equilibrium solubility in water [4]: 203 mg/mL
solubility thermodynamic [4]: 203 mg/mL
polymorphism [5]: undesirable polymorphism
crystalline form after stirring in slurry (XRPD) ([5]; aqueous slurry): conversion to a different (by XRPD) crystalline form
TGA weight loss [6]: No weight loss

α-dihydrotetrabenazine
higher affinity than the β-isomer [7]: 3- to 4 fold

COc1cc2c(cc1OC)[C@H]1C[C@@H](O)[C@H](CC(C)C)CN1CC2.O=S(=O)(O)c1ccccc1 [benzenesulphonate salt]
equilibrium solubility in water ([4]; water, measured by HPLC): 2.20 mg/mL
moisture uptake ([8]; 60% relative humidity): 0.2 wt %
moisture uptake ([8]; 90% relative humidity): 1.7 wt %
hygroscopicity ([8]; gravimetric moisture-sorption): slightly hygroscopic
polymorphism [5]: no apparent polymorphism
crystalline form after stirring in slurry (XRPD) ([5]; water, ethanol and ethyl acetate slurry): remained unchanged
TGA weight loss [6]: No weight loss
thermal stability ([6]; from DSC and TGA): good thermal stability
